Experimental data as given in ChEMBL document CHEMBL1155901, “Sialyl alpha(2-->3) lactose clusters using carbosilane dendrimer core scaffolds as influenza hemagglutinin blockers” (Bioorg Med Chem Lett, 2008).
The source made the active and inactive calls. The calls are words filed in the database; no cut-off is given here.

Tests used:
Type in all cases: functional, organism-based
[1] = system: Influenza A virus H3N2; assay: Inhibition of hemagglutinination in human influenza virus A/Aich/2/68 (H3N2) infected in bovine erythrocytes; details: Influenza A virus (A/Aichi/2/1968(H3N2))
[2] = system: Influenza A virus H3N2; assay: Inhibition of hemagglutinination in human influenza virus A/Memphis/1/71 (H3N2) infected in bovine erythrocytes; details: Influenza A virus (A/Memphis/1/1971(H3N2))
[3] = system: Influenza A virus; assay: Inhibition of hemagglutinination in human influenza virus A/PR/8/34 (H1N1) infected in bovine erythrocytes; details: A/Puerto Rico/8/1934(H1N1)

What does the source list for CC(=O)N[C@H]1[C@H]([C@H](O)[C@H](O)CO)O[C@@](O[C@H]2[C@@H](O)[C@@H](CO)O[C@H](O[C@H]3[C@H](O)[C@@H](O)[C@H](OCCCCCSCCCCCC(=O)NCCC[Si](CCCNC(=O)CCCCCSCCCCCO[C@@H]4O[C@H](CO)[C@@H](O[C@H]5O[C@H](CO)[C@H](O)[C@H](O[C@]6(C(=O)O)C[C@H](O)[C@@H](NC(C)=O)[C@H]([C@H](O)[C@H](O)CO)O6)[C@H]5O)[C@H](O)[C@H]4O)(CCCNC(=O)CCCCCSCCCCCO[C@@H]4O[C@H](CO)[C@@H](O[C@H]5O[C@H](CO)[C@H](O)[C@H](O[C@]6(C(=O)O)C[C@H](O)[C@@H](NC(C)=O)[C@H]([C@H](O)[C@H](O)CO)O6)[C@H]5O)[C@H](O)[C@H]4O)CCC[Si](C)(C)CCC[Si](CCCNC(=O)CCCCCSCCCCCO[C@@H]4O[C@H](CO)[C@@H](O[C@H]5O[C@H](CO)[C@H](O)[C@H](O[C@]6(C(=O)O)C[C@H](O)[C@@H](NC(C)=O)[C@H]([C@H](O)[C@H](O)CO)O6)[C@H]5O)[C@H](O)[C@H]4O)(CCCNC(=O)CCCCCSCCCCCO[C@@H]4O[C@H](CO)[C@@H](O[C@H]5O[C@H](CO)[C@H](O)[C@H](O[C@]6(C(=O)O)C[C@H](O)[C@@H](NC(C)=O)[C@H]([C@H](O)[C@H](O)CO)O6)[C@H]5O)[C@H](O)[C@H]4O)CCCNC(=O)CCCCCSCCCCCO[C@@H]4O[C@H](CO)[C@@H](O[C@H]5O[C@H](CO)[C@H](O)[C@H](O[C@]6(C(=O)O)C[C@H](O)[C@@H](NC(C)=O)[C@H]([C@H](O)[C@H](O)CO)O6)[C@H]5O)[C@H](O)[C@H]4O)O[C@@H]3CO)[C@@H]2O)(C(=O)O)C[C@@H]1O?
Activity [1]: Active; Activity [2]: Active; Activity [3]: Active

CC(=O)N[C@H]1[C@H]([C@H](O)[C@H](O)CO)O[C@@](O[C@H]2[C@@H](O)[C@@H](CO)O[C@H](O[C@H]3[C@H](O)[C@@H](O)[C@H](OCCCCCSCCC[Si](CCCSCCCCCO[C@@H]4O[C@H](CO)[C@@H](O[C@H]5O[C@H](CO)[C@H](O)[C@H](O[C@]6(C(=O)O)C[C@H](O)[C@@H](NC(C)=O)[C@H]([C@H](O)[C@H](O)CO)O6)[C@H]5O)[C@H](O)[C@H]4O)(CCCSCCCCCO[C@@H]4O[C@H](CO)[C@@H](O[C@H]5O[C@H](CO)[C@H](O)[C@H](O[C@]6(C(=O)O)C[C@H](O)[C@@H](NC(C)=O)[C@H]([C@H](O)[C@H](O)CO)O6)[C@H]5O)[C@H](O)[C@H]4O)CCCSCCCCCO[C@@H]4O[C@H](CO)[C@@H](O[C@H]5O[C@H](CO)[C@H](O)[C@H](O[C@]6(C(=O)O)C[C@H](O)[C@@H](NC(C)=O)[C@H]([C@H](O)[C@H](O)CO)O6)[C@H]5O)[C@H](O)[C@H]4O)O[C@@H]3CO)[C@@H]2O)(C(=O)O)C[C@@H]1O was tested. Which Activity [1] did it give?
The Activity was “Active”.

And the Activity [3]?
The Activity was “Active”.

Which Activity [1] does the source give for CC(=O)N[C@H]1[C@H]([C@H](O)[C@H](O)CO)O[C@@](O[C@H]2[C@@H](O)[C@@H](CO)O[C@H](O[C@H]3[C@H](O)[C@@H](O)[C@H](OCCCCCSCCCCCC(=O)NCCC[Si](CCCNC(=O)CCCCCSCCCCCO[C@@H]4O[C@H](CO)[C@@H](O[C@H]5O[C@H](CO)[C@H](O)[C@H](O[C@]6(C(=O)O)C[C@H](O)[C@@H](NC(C)=O)[C@H]([C@H](O)[C@H](O)CO)O6)[C@H]5O)[C@H](O)[C@H]4O)(CCCNC(=O)CCCCCSCCCCCO[C@@H]4O[C@H](CO)[C@@H](O[C@H]5O[C@H](CO)[C@H](O)[C@H](O[C@]6(C(=O)O)C[C@H](O)[C@@H](NC(C)=O)[C@H]([C@H](O)[C@H](O)CO)O6)[C@H]5O)[C@H](O)[C@H]4O)CCCNC(=O)CCCCCSCCCCCO[C@@H]4O[C@H](CO)[C@@H](O[C@H]5O[C@H](CO)[C@H](O)[C@H](O[C@]6(C(=O)O)C[C@H](O)[C@@H](NC(C)=O)[C@H]([C@H](O)[C@H](O)CO)O6)[C@H]5O)[C@H](O)[C@H]4O)O[C@@H]3CO)[C@@H]2O)(C(=O)O)C[C@@H]1O here?
Its Activity is “Active”.

And the Activity [3]?
Its Activity is “Active”.

CC(=O)N[C@H]1[C@H]([C@H](O)[C@H](O)CO)O[C@@](O[C@H]2[C@@H](O)[C@@H](CO)O[C@H](O[C@H]3[C@H](O)[C@@H](O)[C@H](OCCCCCSCCC[Si](CCCSCCCCCO[C@@H]4O[C@H](CO)[C@@H](O[C@H]5O[C@H](CO)[C@H](O)[C@H](O[C@]6(C(=O)O)C[C@H](O)[C@@H](NC(C)=O)[C@H]([C@H](O)[C@H](O)CO)O6)[C@H]5O)[C@H](O)[C@H]4O)(CCCSCCCCCO[C@@H]4O[C@H](CO)[C@@H](O[C@H]5O[C@H](CO)[C@H](O)[C@H](O[C@]6(C(=O)O)C[C@H](O)[C@@H](NC(C)=O)[C@H]([C@H](O)[C@H](O)CO)O6)[C@H]5O)[C@H](O)[C@H]4O)c4ccccc4)O[C@@H]3CO)[C@@H]2O)(C(=O)O)C[C@@H]1O was tested. Which Activity [1] did it give?
The Activity was “Active”.

And the Activity [3]?
The Activity was “Active”.

CC(=O)N[C@H]1[C@H]([C@H](O)[C@H](O)CO)O[C@@](O[C@H]2[C@@H](O)[C@@H](CO)O[C@H](O[C@H]3[C@H](O)[C@@H](O)[C@H](OCCCCCSCCCCCC(=O)NCCC[Si](CCCNC(=O)CCCCCSCCCCCO[C@@H]4O[C@H](CO)[C@@H](O[C@H]5O[C@H](CO)[C@H](O)[C@H](O[C@]6(C(=O)O)C[C@H](O)[C@@H](NC(C)=O)[C@H]([C@H](O)[C@H](O)CO)O6)[C@H]5O)[C@H](O)[C@H]4O)(CCCNC(=O)CCCCCSCCCCCO[C@@H]4O[C@H](CO)[C@@H](O[C@H]5O[C@H](CO)[C@H](O)[C@H](O[C@]6(C(=O)O)C[C@H](O)[C@@H](NC(C)=O)[C@H]([C@H](O)[C@H](O)CO)O6)[C@H]5O)[C@H](O)[C@H]4O)c4ccccc4)O[C@@H]3CO)[C@@H]2O)(C(=O)O)C[C@@H]1O was tested. Which Activity [1] did it give?
The Activity was “Active”.

And the Activity [3]?
The Activity was “Active”.

How did the Activity [1] turn out when C=CCCCO[C@@H]1O[C@H](CO)[C@@H](O[C@H]2O[C@H](CO)[C@H](O)[C@H](O[C@]3(C(=O)O)C[C@H](O)[C@@H](NC(C)=O)[C@H]([C@H](O)[C@H](O)CO)O3)[C@H]2O)[C@H](O)[C@H]1O was run?
Its Activity is “Active”.

What about the Activity [3] of the same molecule?
Its Activity is “Active”.

What does the source list for CC(=O)N[C@H]1[C@H]([C@H](O)[C@H](O)CO)O[C@@](O[C@H]2[C@@H](O)[C@@H](CO)O[C@H](O[C@H]3[C@H](O)[C@@H](O)[C@H](OCCCCCSCCC[Si](CCCSCCCCCO[C@@H]4O[C@H](CO)[C@@H](O[C@H]5O[C@H](CO)[C@H](O)[C@H](O[C@]6(C(=O)O)C[C@H](O)[C@@H](NC(C)=O)[C@H]([C@H](O)[C@H](O)CO)O6)[C@H]5O)[C@H](O)[C@H]4O)(CCCSCCCCCO[C@@H]4O[C@H](CO)[C@@H](O[C@H]5O[C@H](CO)[C@H](O)[C@H](O[C@]6(C(=O)O)C[C@H](O)[C@@H](NC(C)=O)[C@H]([C@H](O)[C@H](O)CO)O6)[C@H]5O)[C@H](O)[C@H]4O)CCC[Si](C)(C)CCC[Si](CCCSCCCCCO[C@@H]4O[C@H](CO)[C@@H](O[C@H]5O[C@H](CO)[C@H](O)[C@H](O[C@]6(C(=O)O)C[C@H](O)[C@@H](NC(C)=O)[C@H]([C@H](O)[C@H](O)CO)O6)[C@H]5O)[C@H](O)[C@H]4O)(CCCSCCCCCO[C@@H]4O[C@H](CO)[C@@H](O[C@H]5O[C@H](CO)[C@H](O)[C@H](O[C@]6(C(=O)O)C[C@H](O)[C@@H](NC(C)=O)[C@H]([C@H](O)[C@H](O)CO)O6)[C@H]5O)[C@H](O)[C@H]4O)CCCSCCCCCO[C@@H]4O[C@H](CO)[C@@H](O[C@H]5O[C@H](CO)[C@H](O)[C@H](O[C@]6(C(=O)O)C[C@H](O)[C@@H](NC(C)=O)[C@H]([C@H](O)[C@H](O)CO)O6)[C@H]5O)[C@H](O)[C@H]4O)O[C@@H]3CO)[C@@H]2O)(C(=O)O)C[C@@H]1O?
Activity [1]: Active; Activity [3]: Active
